Data as given in ChEMBL document CHEMBL3808392, “Design, synthesis and biological evaluation of 5-fluorouracil-derived benzimidazoles as novel type of potential antimicrobial agents” (2016).
In brackets after ≈: the same amount, converted by molar mass. Activity calls are given as the source filed them. The rule behind the calls is not given here.

Tests used:
Bacillus spizizenii = experiment: Antimicrobial activity against Bacillus subtilis ATCC 6633 after 24 hrs by microbroth dilution method; assay type: functional; settings: ATCC 6633, 24 h
Micrococcus luteus = experiment: Antimicrobial activity against Micrococcus luteus ATCC 4698 after 24 hrs by microbroth dilution method; assay type: functional; settings: ATCC 4698, 24 h
Staphylococcus aureus [1] = experiment: Antimicrobial activity against Staphylococcus aureus ATCC 25923 after 24 hrs by microbroth dilution method; assay type: functional; settings: ATCC 25923, 24 h
Escherichia coli [2] = experiment: Antimicrobial activity against Escherichia coli DH52 after 24 hrs by microbroth dilution method; assay type: functional; settings: DH52, 24 h
Escherichia coli [3] = experiment: Antimicrobial activity against Escherichia coli JM109 after 24 hrs by microbroth dilution method; assay type: functional; settings: JM109, 24 h
Aspergillus flavus = experiment: Antimicrobial activity against Aspergillus flavus ATCC 204304 after 24 hrs by microbroth dilution method; assay type: functional; settings: ATCC 204304, 24 h
Bacillus = experiment: Potency index, ratio of norfloxacin MIC to compound MIC for antimicrobial activity against Bacillus proteus ATCC 13315; assay type: functional
Saccharomyces cerevisiae [4] = experiment: Antimicrobial activity against Saccharomyces cerevisiae after 24 hrs by microbroth dilution method; assay type: functional
Salmonella typhi = experiment: Antimicrobial activity against Bacillus typhi after 24 hrs by microbroth dilution method; assay type: functional, Salmonella enterica subsp. enterica serovar Typhi; settings: Salmonella enterica
Staphylococcus aureus [5] = experiment: Antimicrobial activity against methicillin-resistant Staphylococcus aureus N315 after 24 hrs by microbroth dilution method; assay type: functional; settings: N315, 24 h
Candida albicans = experiment: Antimicrobial activity against Candida albicans ATCC 10231 after 24 hrs by microbroth dilution method; assay type: functional; settings: ATCC 10231, 24 h
Candida = experiment: Antimicrobial activity against Candida mycoderma ATCC 9888 after 24 hrs by microbroth dilution method; assay type: functional; settings: ATCC 9888, 24 h
[6] = Antimicrobial activity against Bacillus proteus ATCC 13315 after 24 hrs by microbroth dilution method; assay type: functional; settings: ATCC 13315, 24 h
Escherichia coli [7] = experiment: Potency index, ratio of chloromycin MIC to compound MIC for antimicrobial activity against Escherichia coli DH52; assay type: functional
Calf thymus DNA [8] = experiment: Binding affinity to calf thymus DNA assessed as compound-DNA complex formation at 4.87x10'-5 mol/l by fluorescence analysis; assay type: nucleic-acid assay; settings: Bos taurus
Calf thymus DNA [9] = experiment: Binding affinity to calf thymus DNA assessed as compound-DNA complex formation by UV-visible spectroscopy; assay type: nucleic-acid assay; settings: Bos taurus
Staphylococcus aureus [10] = experiment: Potency index, ratio of norfloxacin MIC to compound MIC for antimicrobial activity against methicillin-resistant Staphylococcus aureus N315; assay type: functional
Calf thymus DNA [11] = experiment: Competitive binding affinity to calf thymus DNA assessed as compound-DNA complex formation at 0.74 to 2.18x10'-5 mol/l by UV-visible spectroscopy in presence of neutral red dye; assay type: nucleic-acid assay; settings: Bos taurus
Calf thymus DNA [12] = experiment: Binding affinity to calf thymus DNA assessed as compound-DNA complex formation by fluorescence analysis in presence of quencher potassium iodide; assay type: nucleic-acid assay; settings: Bos taurus
Saccharomyces cerevisiae [13] = experiment: Potency index, ratio of fluconazole MIC to compound MIC for antimicrobial activity against Saccharomyces cerevisiae; assay type: functional
Staphylococcus aureus [14] = experiment: Potency index, ratio of chloromycin MIC to compound MIC for antimicrobial activity against methicillin-resistant Staphylococcus aureus N315; assay type: functional

Q: With `O=c1[nH]c(=O)n(Cc2nc3ccccc3n2Cc2cccc(F)c2)cc1F` as the compound, how does the MIC (Bacillus spizizenii) read?
A: 8 µg/mL (≈ 21.7 µM)

Q: And the MIC (Micrococcus luteus)?
A: 16 µg/mL (≈ 43.4 µM)

Q: And the MIC (Staphylococcus aureus [1])?
A: 4 µg/mL (≈ 10.9 µM)

Q: What about the MIC (Escherichia coli [2]) of the same compound?
A: 2 µg/mL (≈ 5.43 µM)

Q: And the MIC (Escherichia coli [3])?
A: 64 µg/mL (≈ 174 µM)

Q: And the MIC (Aspergillus flavus)?
A: 32 µg/mL (≈ 86.9 µM)

Q: And the Ratio (Bacillus)?
A: 4

Q: What about the MIC (Saccharomyces cerevisiae [4]) of the same compound?
A: 4 µg/mL (≈ 10.9 µM)

Q: And the MIC (Salmonella typhi)?
A: 128 µg/mL (≈ 348 µM)

Q: What about the MIC (Staphylococcus aureus [5]) of the same compound?
A: 64 µg/mL (≈ 174 µM)

Q: And the MIC (Candida albicans)?
A: 16 µg/mL (≈ 43.4 µM)

Q: And the MIC (Candida)?
A: 16 µg/mL (≈ 43.4 µM)

Q: And the MIC [6]?
A: 2 µg/mL (≈ 5.43 µM)

Q: What does the source list for `CCn1c(Cn2cc(F)c(=O)[nH]c2=O)nc2ccccc21`?
A: MIC (Bacillus spizizenii): 64 µg/mL (≈ 222 µM); Ratio (Escherichia coli [7]): 4; MIC (Micrococcus luteus): 16 µg/mL (≈ 55.5 µM); MIC (Staphylococcus aureus [1]): 16 µg/mL (≈ 55.5 µM); MIC (Escherichia coli [2]): 8 µg/mL (≈ 27.8 µM); MIC (Escherichia coli [3]): 64 µg/mL (≈ 222 µM); MIC (Aspergillus flavus): 32 µg/mL (≈ 111 µM); MIC (Saccharomyces cerevisiae [4]): 4 µg/mL (≈ 13.9 µM); MIC (Salmonella typhi): 32 µg/mL (≈ 111 µM); MIC (Staphylococcus aureus [5]): 16 µg/mL (≈ 55.5 µM); MIC (Candida albicans): 2 µg/mL (≈ 6.94 µM); MIC (Candida): 16 µg/mL (≈ 55.5 µM); MIC [6]: 32 µg/mL (≈ 111 µM)

Q: With `O=c1c(F)cn(Cc2nc3ccccc3n2Cc2cccc(F)c2)c(=O)n1Cc1cccc(F)c1` as the compound, how does the Activity (Calf thymus DNA [8]) read?
A: Active

Q: And the MIC (Bacillus spizizenii)?
A: 16 µg/mL (≈ 33.6 µM)

Q: What about the K (Calf thymus DNA [9]) of the same compound?
A: 3.89 ×10⁴ L/mol

Q: And the MIC (Micrococcus luteus)?
A: 64 µg/mL (≈ 134 µM)

Q: What about the MIC (Staphylococcus aureus [1]) of the same compound?
A: 4 µg/mL (≈ 8.4 µM)

Q: And the Ratio (Staphylococcus aureus [10])?
A: 4

Q: And the MIC (Escherichia coli [2])?
A: 2 µg/mL (≈ 4.2 µM)

Q: And the MIC (Escherichia coli [3])?
A: 8 µg/mL (≈ 16.8 µM)

Q: And the MIC (Aspergillus flavus)?
A: 8 µg/mL (≈ 16.8 µM)

Q: What about the Activity (Calf thymus DNA [11]) of the same compound?
A: Active

Q: And the MIC (Saccharomyces cerevisiae [4])?
A: 1 µg/mL (≈ 2.1 µM)

Q: And the KSV (Calf thymus DNA [12])?
A: 6.45 L/mol

Q: And the MIC (Salmonella typhi)?
A: 8 µg/mL (≈ 16.8 µM)

Q: What about the MIC (Staphylococcus aureus [5]) of the same compound?
A: 2 µg/mL (≈ 4.2 µM)

Q: And the MIC (Candida albicans)?
A: 32 µg/mL (≈ 67.2 µM)

Q: What about the Ratio (Saccharomyces cerevisiae [13]) of the same compound?
A: 16

Q: What about the MIC (Candida) of the same compound?
A: 32 µg/mL (≈ 67.2 µM)

Q: And the Ratio (Staphylococcus aureus [14])?
A: 8

Q: What about the MIC [6] of the same compound?
A: 4 µg/mL (≈ 8.4 µM)

Q: For `CCCn1c(Cn2cc(F)c(=O)[nH]c2=O)nc2ccccc21`, which MIC (Bacillus spizizenii) is on record?
A: 16 µg/mL (≈ 52.9 µM)

Q: What about the MIC (Micrococcus luteus) of the same compound?
A: 16 µg/mL (≈ 52.9 µM)

Q: And the MIC (Staphylococcus aureus [1])?
A: 16 µg/mL (≈ 52.9 µM)

Q: What about the MIC (Escherichia coli [2]) of the same compound?
A: 64 µg/mL (≈ 212 µM)

Q: And the MIC (Escherichia coli [3])?
A: 64 µg/mL (≈ 212 µM)

Q: What about the MIC (Aspergillus flavus) of the same compound?
A: 32 µg/mL (≈ 106 µM)

Q: What about the MIC (Saccharomyces cerevisiae [4]) of the same compound?
A: 8 µg/mL (≈ 26.5 µM)

Q: And the MIC (Salmonella typhi)?
A: 64 µg/mL (≈ 212 µM)

Q: What about the MIC (Staphylococcus aureus [5]) of the same compound?
A: 16 µg/mL (≈ 52.9 µM)

Q: And the MIC (Candida albicans)?
A: 2 µg/mL (≈ 6.62 µM)

Q: And the MIC (Candida)?
A: 16 µg/mL (≈ 52.9 µM)

Q: And the MIC [6]?
A: 64 µg/mL (≈ 212 µM)
